Entries after “also recorded” stand apart in the source; their conditions may differ.
Legend:
[1] = test system: N171-82Q HD mice; assay: MRI brain volume in N171-82Q Huntington's Disease mice; format: in vivo, mouse; conditions: N171-82Q HD mice vs HD placebo
Experimental: (§1) MP101 (DNP) was used in a mouse model of Huntington's Disease, the “Fragment Model” N171-82 HD mice, to determine its neuroprotective effects. The N171-82 HD mice were treated with MP101 at 0.5, 1 and 5 mg/kg by oral gavage daily for greater than 17-weeks. At the age of 26-weeks (17-weeks of treatment), the mice were tested for changes in behavioral, loss of brain volume, spiny neurons and general neurons. FIGS. 8a, 8b, 8c, 8d, 8e, and 8f show the effects of DNP (MP101 drug treatment).
(§2) FIGS. 8a-8f show the effects of MP101 in the Huntington's Disease model N171-82Q after 13-weeks (age 22 weeks) and/or 17-weeks (age 26-weeks) of treatment with DNP.

[2] = test system: Experimental Autoimmune Encephalomyelitis (EAE); assay: Clinical scores in the EAE mouse model of MS; format: in vivo; conditions: FIG. 2c
[3] = test system: N171-82Q HD mice; assay: Neuronal biomarkers DARPP32 and PSD95 in N171-82Q HD mice; format: in vivo, mouse
Experimental: as §1, §2

[4] = test system: Experimental Autoimmune Encephalomyelitis (EAE); assay: Spinal cord electron microscopy in the EAE mouse model of MS; format: in vivo; conditions: 5 mg/kg, Day-16 (peak of onset), vs placebo, FIG. 2d
[5] = test system: Mecp2 mutant mice; assay: Clasping test in Mecp2 mutant mice; format: in vivo, mouse; conditions: 1 mg/kg, 12-weeks of age, 1-month oral gavage, FIG. 4
Experimental: (§3) MP101 was tested in a model of Rett Syndrome using Mecp2 mutant mice. Rett Syndrome is a developmental disorder in young girls, with first symptoms starting at about 18-months of age, including reduced head growth. FIGS. 3a, 3b, 3c and 4 show the effects of treating these mutant mice with MP101 at 0.5, 1 mg/kg and 5 mg/kg by oral gavage.

[6] = acute single dose post-ischemia; cited from earlier work
[7] = test system: wildtype mice; assay: Kanic acid model of epilepsy, seizure time; format: in vivo, mouse; conditions: FIG. 6
Experimental: DNP was also evaluated for a treatment of Epilepsy. The kanic acid model is an acute model of epilepsy caused by an injection in the right hippocampus of an analogue of glutamate (kanic acid) that over-stimulates the neurons causing death.

[8] = test system: N171-82Q HD mice; assay: Tapered beam and balance beam motor function in N171-82Q HD mice; format: in vivo, mouse; conditions: after 17-weeks of treatment, FIG. 8f
Experimental: as §1, §2

[9] = test system: BDNF; assay: BDNF mRNA in brain by semi quantitative PCR after two weeks daily oral gavage; format: in vivo, Wildtype C57BL/6J mice; conditions: FIG. 1
Experimental: As described herein below, mitochondrial uncoupler DNP was tested in a range of doses in mice from 0.5 mg/kg of DNP to 10 mg/kg of DNP under oral chronic treatment to titrate the amount of drug in the brain required to induce increases of BDNF endogenously within the brain. […] Therefore, it was discovered that there is a specific and limited dose range of DNP that is necessary to achieve statistically significant survival and behavioral benefit for a host of diseases that benefit from increased BDNF levels. […]

[10] = test system: SIRT3 KO mice; assay: 6-OHDA dopaminergic degeneration, rotarod in SIRT3 KO mice (Parkinson's); format: in vivo, mouse; conditions: 14-Days oral gavage, 6-OHDA in right striatum, FIG. 7b
Experimental: (§4) The merits of treating Parkinson's Disease with MP101 (DNP) was evaluated in wildtype mice and SIRT3 KO mice with 6-OHDA injections after two weeks of MP101 treatment. We examined the neuroprotective effects of varying MP-101 doses (0.5, 1, 5 mg/kg) against dopaminergic degeneration of nigrostriatal neurons induced by a single unilateral stereotaxic injection of neurotoxin 6-hydroxydopamine (6-OHDA) in the right striatum of the brain of 2-3 month old male C57Bl/6 mice or SIRT3 KO mice. SIRT3 KO is a model of a heightened sensitivity to glutamate-induced calcium overload and excitotoxicity, and oxidative and mitochondrial stress, therefore ideal for evaluating Parkinson's Disease, Huntington's Disease and temporal lobe epilepsy.
(§5) FIGS. 7a and 7b show the effects of DNP (MP101) treatment for 14-Days by oral gavage in protecting dopaminergic neuronal loss when the right striatum is injected with 6-OHDA after the last day.

[11] = test system: BDNF; assay: BDNF protein levels by immunoblot in the EAE mouse model of MS; format: in vivo; conditions: for Intensity of the BDNF band (immunoblot): lumbal spinal cord, Day 42, treated Day 7 to Day 21, FIG. 2a
Excerpt: The tissue was taken on Day 42 of the study during the recovery phase from the lumbal spinal cord of representative mice that were immunized on Day 1 with the MOG peptide, then treated with MP101 starting on Day 7 and stopping on Day 21. […] Untreated animals are shown as naïve. The changes in BDNF levels are therefore 3-weeks post-treatment with DNP (aka MP101).

[12] = test system: Mecp2 mutant mice; assay: Rotarod in Mecp2 mutant mice, a model of Rett Syndrome; format: in vivo, mouse; conditions: 8-weeks of age; 0.5, 1 and 5 mg/kg oral gavage vs mutant vehicle; FIG. 3a
Experimental: as §3
In FIGS. 3a and 3b, Mecp2 mutant mice, a model of Rett Syndrome, were treated with MP101 (DNP) at 6-weeks of age and tested on their coordination to walk on a rotating cylinder (rotarod). Wildtype mice are used as a benchmark for general decline in behavior compared to Mecp2 mutant mice treated with Vehicle, 0.5 mg/kg MP101, 1 mg/kg MP101 and 5 mg/kg MP101 by oral gavage.

[13] = test system: C57Bl/6 mice; assay: 6-OHDA dopaminergic degeneration, cylinder test in wildtype mice (Parkinson's); format: in vivo, mouse
Experimental: as §4, §5

[14] = test system: APP/PS1 mice; assay: Morris Water Maze in APP/PS1 mice (Alzheimer's); format: in vivo, mouse; conditions: 0.5, 1 and 5 mg/kg oral gavage for 4-months vs Vehicle, FIGS. 5a-5c
Experimental: In addition, Alzheimer's Disease, representing about 70% of all dementia cases, was evaluated using the APP/PS1 mice, which express the APPswe mutation and PS1deltaE9 mutation and develop relatively rapid Aβ pathology and cognitive deficits. At 4-months of age, the APP/PS1 mice were treated for 4-months by oral gavage delivery with MP101 (DNP) at 0.5, 1 and 5 mg/kg. […] The amount of time spent in the quadrant is an indicator of whether the mice remember the general location, with increased time indicating increased memory.
The amount of time spent in the quadrant is an indicator of whether the subject remembers the general location.

## O=[N+]([O-])c1ccc(O)c([N+](=O)[O-])c1 [DNP, 2,4-dinitrophenol]
[1]; FIG. 8b
  Brain volume loss in the cortex (MRI): minor loss
[1]; FIG. 8c
  Brain volume loss in the striatum (MRI): minor loss
[2]
  Progression of the phenotype on clinical scores: attenuation of disease progression
[3]; 26-weeks of age, FIG. 8d
  Medium spiny neurons, biomarker DARPP32: preserves medium spiny neurons
[3]; N171-82Q HD mice, FIG. 8e
  General neuronal loss, postsynaptic protein PSD95 levels: preserves general neuronal loss
[4]
  Myelin sheaths surrounding the axons and axons (electron microscopy): striking axonal protection
[4]; listed as MP101
  Myelin sheaths surrounding the axons and axons (electron microscopy): completely intact
[5]
  Clasping test: shows an effect
[6]
  Infarct volume: reduce infarct volume
  ROSs species: lower ROSs species
[7]; 1, 5 and 10 mg/kg oral gavage for 2-weeks before injection
  Seizure time after kanic acid injection: shortening of seizure time
[7]; 1, 5 and 10 mg/kg oral gavage for 2-weeks, relative to Vehicle
  Neural protection from over-stimulation by kanic acid: provided neural protection
[8]
  Motor function in the balance beam: improves motor function
  Motor function in the tapered beam: improves motor function
[9]; 10.0 mg/kg daily oral gavage, bell-shaped curve
  BDNF levels in the brain at the highest dose compared with lower doses: reduced level of BDNF compared with the next two lower doses; also recorded: less BDNF is expressed
[9]; 0.5, 1.0, 5.0 and 10.0 mg/kg daily oral gavage
  BDNF levels in the brain (mRNA, delta-delta CT, percent change relative to placebo): induce BDNF within the brain; also recorded: increases BDNF levels in the brain
[10]
  Motor coordination on rotating cylinder (rotarod): improved motor coordination
[11]; 0.5 mg/kg and 1 mg/kg vs placebo
  Intensity of the BDNF band (immunoblot): increases
[11]; 5 mg/kg
  Intensity of the BDNF band (immunoblot): plateau effect
[11]; EAE model, after 2 weeks of treatment, FIG. 2b
  BDNF protein level 3-weeks post treatment: statistically elevated level of BDNF protein; also recorded: BDNF levels are elevated in the brain; also recorded: lasting effect
[12]
  Ability to walk on the rotarod: fall less and can handle higher speeds of rotation
[13]; 0.5, 1, 5 mg/kg for two weeks, C57Bl/6 or SIRT3 KO mice, FIG. 7
  Protection of dopaminergic neurons from 6-OHDA: protected the dopaminergic neurons
[13]; wildtype mice, 14-Days oral gavage, 6-OHDA in right striatum, FIG. 7a
  Percent of left and right paw touches on the wall (cylinder): improved
[14]
  Cognition / short term memory in Morris Water Maze (distance, time in quadrant, entries): improved in short term memory
[14]; listed as MP101
  Cognition / short term memory in Morris Water Maze (distance, time in quadrant, entries): improved cognition

From patent publication US9974755B2, “Induced expression of brain derived neurotrophic factor (BDNF) for treatment of neuromuscular, neurodegenerative, autoimmune, developmental and/or metabolic diseases” (Mitochon Pharmaceuticals, Inc., priority 2015, dated 2018)
